Where “and” joins values, the source holds several entries; their conditions need not be identical. Equal values may be shown once.
Experiments:
[1] = 101 kPa, Liquid; for speed of sound: Linear variable-path acoustic interferometer; for mass density: Pycnometric method
[2] = xn = mol fraction of the nth substance listed; conditions: 101 kPa, Liquid; for speed of sound: Linear variable-path acoustic interferometer; for mass density: Pycnometric method

Nc1ccccc1Cl [2-chlorobenzeneamine]
[1]
Conditions	mass density [kg/m3]	speed of sound [m/s]
303.15 K	1202.7	1470
313.15 K	1193	1438
323.15 K	1183.3	1402

Nc1ccccc1Cl [2-chlorobenzeneamine] + C1CCOC1
[2]
Conditions	mass density, 303.15 K [kg/m3]	mass density, 313.15 K [kg/m3]	mass density, 323.15 K [kg/m3]	speed of sound, 303.15 K [m/s]	speed of sound, 313.15 K [m/s]	speed of sound, 323.15 K [m/s]
x2 = 0	1202.7	1193	1183.3	1470	1438	1402
x2 = 0.0695	1187.6	1177.4	1167.9	1461	1427	1395
x2 = 0.1543	1167.6	1157.7	1148.6	1450	1415	1383
x2 = 0.2423	1146	1136.3	1127	1436	1401	1369
x2 = 0.3275	1124.2	1114.5	1105	1422	1386	1353
x2 = 0.4213	1098.7	1088.7	1079.1	1404	1367	1333
x2 = 0.5259	1067.6	1057.4	1047.5	1383	1344	1308
x2 = 0.6325	1032	1021.8	1012.2	1359	1319	1281
x2 = 0.744	990.1	980.1	971	1331	1289	1250
x2 = 0.8663	938.4	928.5	920	1296	1252	1212

Nc1cccc(Cl)c1 [3-chlorobenzenamine]
[1]
Conditions	mass density	speed of sound
303.15 K	1205.3 kg/m3	1517 m/s
313.15 K	1196.1 kg/m3 and 1196 kg/m3	1484 m/s and 1486 m/s
323.15 K	1186.6 kg/m3	1452 m/s

Nc1cccc(Cl)c1 [3-chlorobenzenamine] + C1CCOC1
[2]
Conditions	mass density, 303.15 K [kg/m3]	mass density, 313.15 K [kg/m3]	mass density, 323.15 K [kg/m3]	speed of sound, 303.15 K [m/s]	speed of sound, 313.15 K [m/s]	speed of sound, 323.15 K [m/s]
x2 = 0	1205.3	1196	1186.6	1517	1486	1452
x2 = 0.0728	1189.4	1180.6	1171.5	1500	1468	1436
x2 = 0.1321	1175.7	1167.1	1157.9	1487	1455	1424
x2 = 0.2389	1149.7	1140.6	1131.3	1465	1432	1400
x2 = 0.3272	1126.8	1117	1107.4	1446	1412	1380
x2 = 0.4116	1102.9	1093.2	1083.3	1427	1392	1360
x2 = 0.5161	1071.3	1061.4	1051.5	1403	1366	1333
x2 = 0.6297	1033.5	1023.9	1014.3	1373	1336	1301
x2 = 0.7419	992	982.7	973.7	1341	1302	1266
x2 = 0.8633	941.6	932.3	923.4	1302	1260	1222

Nc1cccc(Cl)c1 [3-chlorobenzenamine] + CC(C)OC(C)C
[2]
Conditions	mass density, 303.15 K [kg/m3]	mass density, 313.15 K [kg/m3]	mass density, 323.15 K [kg/m3]	speed of sound, 303.15 K [m/s]	speed of sound, 313.15 K [m/s]	speed of sound, 323.15 K [m/s]
x2 = 0	1205.3	1196.1	1186.6	1517	1484	1452
x2 = 0.0619	1171.2	1163.2	1154.7	1484	1451	1418
x2 = 0.1302	1134.1	1126.7	1118.2	1448	1414	1380
x2 = 0.2031	1095.7	1088.2	1079.3	1410	1374	1340
x2 = 0.2827	1055.1	1047.4	1038	1368	1331	1295
x2 = 0.3716	1011.3	1003.4	993.6	1321	1283	1246
x2 = 0.4676	965	957.2	947.6	1270	1230	1192
x2 = 0.5803	911.2	903.7	894.5	1209	1168	1129
x2 = 0.7235	842.6	835.3	826.7	1132	1089	1048
x2 = 0.8428	785.4	777.7	768.7	1066	1023	981

CC(C)OC(C)C [diisopropyl ether]
[1]
Conditions	mass density [kg/m3]	speed of sound [m/s]
303.15 K	712.9	976
313.15 K	702.9	932
323.15 K	691.9	889

CC(C)OC(C)C [diisopropyl ether] + Nc1cccc(Cl)c1
[2], x1 = 1
Conditions	mass density [kg/m3]	speed of sound [m/s]
303.15 K	712.9	976
313.15 K	702.9	932
323.15 K	691.9	889

C1CCOC1 [tetrahydrofuran]
[1]
Conditions	mass density [kg/m3]	speed of sound [m/s]
303.15 K	876.9	1254
313.15 K	865.7	1207
323.15 K	854.8	1165

C1CCOC1 [tetrahydrofuran] + Nc1cccc(Cl)c1
[2], x1 = 1
Conditions	mass density [kg/m3]	speed of sound [m/s]
303.15 K	876.9	1254
313.15 K	865.7	1207
323.15 K	854.8	1165

C1CCOC1 [tetrahydrofuran] + Nc1ccccc1Cl
[2], x1 = 1
Conditions	mass density [kg/m3]	speed of sound [m/s]
303.15 K	876.9	1254
313.15 K	865.7	1207
323.15 K	854.8	1165
